Data: ChEMBL document CHEMBL5120906, “Oxalierpenes A and B, Unusual Indole-Diterpenoid Derivatives with Antiviral Activity from a Marine-Derived Strain of the Fungus Penicillium oxalicum” (J Nat Prod, 2022)

Experiments:
[1] = Cytotoxicity against human HEp-2 cells assessed as reduction in cell viability; format: toxicity, cell-based
[2] = Cytotoxicity against dog MDCK cells assessed as reduction in cell viability; format: toxicity, cell-based, Canis lupus familiaris
[3] = Therapeutic index, ratio of CC50 for Cytotoxicity against human HEp-2 cells to IC50 for Antiviral activity against Respiratory syncytial virus infected in human HEp-2 cells; format: toxicity, cell-based; conditions: read-out: Ratio CC50/IC50
[4] = tested on: Respiratory syncytial virus; assay: Antiviral activity against Respiratory syncytial virus infected in human HEp-2 cells assessed as inhibition of virus-induced cytopathic effect by CPE inhibition assay; format: functional, organism-based
[5] = Therapeutic index, ratio of CC50 for Cytotoxicity against dog MDCK cells to IC50 for Antiviral activity against Influenza A virus A/WSN/33(H1N1) infected in dog MDCK cells; format: toxicity, cell-based; conditions: read-out: Ratio CC50/IC50
Influenza A virus = assay: Antiviral activity against Influenza A virus A/WSN/33(H1N1) infected in dog MDCK cells assessed as inhibition of virus-induced cytopathic effect by CPE inhibition assay; format: functional, organism-based

CC1(C)C=C2C(=Cc3cc4c5c([nH]c4cc32)[C@@]2(C)[C@@H](CCC3=C([C@@H]4OC(C)(C)[C@@H](O)C4=O)C(=O)CC[C@@]32C)C5)C(C)(C)O1
CC50 [1]: 31 µM
CC50 [2]: 27 µM
selectivity ratio [3]: 4.6
IC50 [4]: 6.7 µM
selectivity ratio [5]: 2.8
IC50 (Influenza A virus): 9.4 µM

CC1(C)C=C2C(=Cc3cc4c5c([nH]c4cc32)[C@@]2(C)[C@@H](CC[C@@]34O[C@@]6(O)[C@H](O)C(C)(C)O[C@H]6[C@@H]3C(=O)CC[C@]24C)C5)C(C)(C)O1
CC50 [1]: 15 µM
CC50 [2]: 13 µM
selectivity ratio [3]: 5.5
IC50 [4]: 2.8 µM
selectivity ratio [5]: 3.5
IC50 (Influenza A virus): 3.7 µM

NC(=O)c1nc(F)c[nH]c1=O [FAVIPIRAVIR]
CC50 [2]: > 1000 µM
selectivity ratio [5]: > 28

NC(=O)c1ncn([C@@H]2O[C@H](CO)[C@@H](O)[C@H]2O)n1 [RIBAVIRIN]
CC50 [1]: > 1000 µM
selectivity ratio [3]: > 54
IC50 [4]: 19 µM
